Results published in article PMC7913291, “Synthesis and Anti-Hepatocarcinoma Effect of Amino Acid Derivatives of Pyxinol and Ocotillol” (Molecules, 2021).

System: HepG2 cells
Assay: Cytotoxic activity on HepG2 cells (CCK-8 assay)
Type: cell-based
Conditions: Homo sapiens, HepG2; CCK-8, 48 h, mean of three experiments ±SD; read-out: IC50 over HepG2 cells
Method: Human hepatocellular liver carcinoma cell line (HepG2) were obtained from Institute of Biochemistry and Cell Biology, Academy of Science (Shanghai, China) and were authenticated using the STR profiling method. HepG2 cells were cultured in MDEM (Gibco, Waltham, MA, USA) supplemented with 10% fetal bovine serum (FBS) and 1% penicillin-streptomycin bubbled with 5% CO2-enriched air at a temperature of 37 °C (Thermo Scientific, Waltham, MA, USA). The cytotoxic effect of compounds on HepG2 cells was assessed by using CCK-8 method. Briefly, HepG2 cells were cultured in 96-well plates at a density of 5 × 10^3 cells per well for 24 h. […] Three replicates were performed. The relative cell viability was expressed as percentage relative to the untreated cells. The inhibition ratio was calculated. The IC50 values were calculated using Logistic regression from three independent tests.

First: C[C@H](NC(=O)OC(C)(C)C)C(=O)O[C@H]1CC[C@@]2(C)C(CC[C@]3(C)C2C[C@@H](O)C2C([C@]4(C)CC[C@H](C(C)(C)O)O4)CC[C@]23C)C1(C)C (stereo partly drawn) [1a, (20S, 24R)-Epoxy-3β-O-(Boc-L-alanyl)-dammarane-12β, 25-diol]
Second: CC(C)[C@H](NC(=O)OC(C)(C)C)C(=O)O[C@H]1CC[C@@]2(C)C(CC[C@]3(C)C2C[C@@H](O)C2C([C@]4(C)CC[C@H](C(C)(C)O)O4)CC[C@]23C)C1(C)C (stereo partly drawn) [1f, (20S, 24R)-Epoxy-3β-O-(Boc-L-valyl)-dammarane-12β, 25-diol]
The IC50 of the first is 2.4-fold lower: 26.3 ± 0.72 µM for the first, 62.1 ± 3.78 µM for the second.

CSCC[C@H](NC(=O)OC(C)(C)C)C(=O)O[C@H]1CC[C@@]2(C)C(CC[C@]3(C)C2C[C@@H](O)C2C([C@]4(C)CC[C@H](C(C)(C)O)O4)CC[C@]23C)C1(C)C (stereo partly drawn) [1b, (20S, 24R)-Epoxy-3β-O-(Boc-L-methinyl)-dammarane-12β, 25-diol] and CC(C)C[C@H](NC(=O)OC(C)(C)C)C(=O)O[C@H]1CC[C@@]2(C)C(CC[C@]3(C)C2C[C@@H](O)C2C([C@]4(C)CC[C@H](C(C)(C)O)O4)CC[C@]23C)C1(C)C (stereo partly drawn) [1d, (20S, 24R)-Epoxy-3β-O-(Boc-L-leucyl)-dammarane-12β,25-diol] are within error of each other in IC50: 73.5 ± 2.6 µM for the first, 73.1 ± 1.67 µM for the second.

CC(C)(C)OC(=O)NCC(=O)O[C@H]1CC[C@@]2(C)C(CC[C@]3(C)C2C[C@@H](O)C2C([C@]4(C)CC[C@H](C(C)(C)O)O4)CC[C@]23C)C1(C)C (stereo partly drawn) [1c, (20S, 24R)-Epoxy-3β-O-(Boc-L-glycyl)-dammarane-12β, 25-diol] and CC(C)(C)OC(=O)NCC(=O)O[C@H]1CC[C@@]2(C)C([C@@H](O)C[C@]3(C)C2C[C@@H](O)C2C([C@]4(C)CC[C@H](C(C)(C)O)O4)CC[C@]23C)C1(C)C (stereo partly drawn) [3c, (20S, 24R)-Epoxy-3β-O-(Boc-L-glycyl)-dammarane-6α,12β,25-triol] are within 1.5-fold of each other in IC50: 26.6 ± 1.52 µM for the first, 32.6 ± 1.55 µM for the second.

CC(C)(C)OC(=O)N1CCCC1C(=O)O[C@H]1CC[C@@]2(C)C(CC[C@]3(C)C2C[C@@H](O)C2C([C@]4(C)CC[C@H](C(C)(C)O)O4)CC[C@]23C)C1(C)C (stereo partly drawn) [1e, (20S, 24R)-Epoxy-3β-O-(Boc-L-prolyl)-dammarane-12β, 25-diol] and CC(C)(C)OC(=O)N1CCCC1C(=O)O[C@H]1CC[C@@]2(C)C([C@@H](O)C[C@]3(C)C2C[C@@H](O)C2C([C@]4(C)CC[C@H](C(C)(C)O)O4)CC[C@]23C)C1(C)C (stereo partly drawn) [3e, (20S, 24R)-Epoxy-3β-O-(Boc-L-prolyl)-dammarane-6α,12β,25-triol] are within 1.5-fold of each other in IC50: 30.5 ± 2.98 µM for the first, 41.8 ± 2.58 µM for the second.

C[C@H](N)C(=O)O[C@H]1CC[C@@]2(C)C(CC[C@]3(C)C2C[C@@H](O)C2C([C@]4(C)CC[C@H](C(C)(C)O)O4)CC[C@]23C)C1(C)C (stereo partly drawn) [2a, (20S, 24R)-Epoxy-3β-O-(L-alanyl)-dammarane-12β, 25-diol] and CC(C)[C@H](N)C(=O)O[C@H]1CC[C@@]2(C)C(CC[C@]3(C)C2C[C@@H](O)C2C([C@]4(C)CC[C@H](C(C)(C)O)O4)CC[C@]23C)C1(C)C (stereo partly drawn) [2f, (20S, 24R)-Epoxy-3β-O-(L-valyl)-dammarane-12β, 25-diol] are within error of each other in IC50: 16.5 ± 1.66 µM for the first, 19.7 ± 1.96 µM for the second.

CSCC[C@H](N)C(=O)O[C@H]1CC[C@@]2(C)C(CC[C@]3(C)C2C[C@@H](O)C2C([C@]4(C)CC[C@H](C(C)(C)O)O4)CC[C@]23C)C1(C)C (stereo partly drawn) [2b, (20S, 24R)-Epoxy-3β-O-(L-methinyl)-dammarane-12β, 25-diol] and CC(C)C[C@H](N)C(=O)O[C@H]1CC[C@@]2(C)C(CC[C@]3(C)C2C[C@@H](O)C2C([C@]4(C)CC[C@H](C(C)(C)O)O4)CC[C@]23C)C1(C)C (stereo partly drawn) [2d, (20S, 24R)-Epoxy-3β-O-(L-leucyl)-dammarane-12β, 25-diol] are within error of each other in IC50: 20.3 ± 2.04 µM for the first, 20.1 ± 3.49 µM for the second.

CC(C)(O)[C@H]1CC[C@@](C)(C2CC[C@]3(C)C2[C@H](O)CC2[C@@]4(C)CC[C@H](OC(=O)CN)C(C)(C)C4CC[C@]23C)O1 (stereo partly drawn) [2c, (20S, 24R)-Epoxy-3β-O-(L-glycyl)-dammarane-12β, 25-diol] and CC(C)(O)[C@H]1CC[C@@](C)(C2CC[C@]3(C)C2[C@H](O)CC2[C@@]4(C)CC[C@H](OC(=O)CN)C(C)(C)C4[C@@H](O)C[C@]23C)O1 (stereo partly drawn) [4c, (20S, 24R)-Epoxy-3β-O-(-L-glycyl)-dammarane-6α,12β,25-triol] are within 1.5-fold of each other in IC50: 16.3 ± 0.31 µM for the first, 20.6 ± 2.47 µM for the second.

C[C@H](NC(=O)OC(C)(C)C)C(=O)O[C@H]1CC[C@@]2(C)C([C@@H](O)C[C@]3(C)C2C[C@@H](O)C2C([C@]4(C)CC[C@H](C(C)(C)O)O4)CC[C@]23C)C1(C)C (stereo partly drawn) [3a, (20S, 24R)-Epoxy-3β-O-(Boc-L-alanyl)-dammarane-6α,12β,25-triol] and CC(C)[C@H](NC(=O)OC(C)(C)C)C(=O)O[C@H]1CC[C@@]2(C)C([C@@H](O)C[C@]3(C)C2C[C@@H](O)C2C([C@]4(C)CC[C@H](C(C)(C)O)O4)CC[C@]23C)C1(C)C (stereo partly drawn) [3f, (20S, 24R)-Epoxy-3β-O-(Boc-L-valyl)-dammarane-6α,12β,25-triol] are within 1.5-fold of each other in IC50: 61 ± 1.57 µM for the first, 80.1 ± 2.03 µM for the second.

CSCC[C@H](NC(=O)OC(C)(C)C)C(=O)O[C@H]1CC[C@@]2(C)C([C@@H](O)C[C@]3(C)C2C[C@@H](O)C2C([C@]4(C)CC[C@H](C(C)(C)O)O4)CC[C@]23C)C1(C)C (stereo partly drawn) [3b, (20S, 24R)-Epoxy-3β-O-(Boc-L-methinyl)-dammarane-6α,12β,25-triol] and CC(C)C[C@H](NC(=O)OC(C)(C)C)C(=O)O[C@H]1CC[C@@]2(C)C([C@@H](O)C[C@]3(C)C2C[C@@H](O)C2C([C@]4(C)CC[C@H](C(C)(C)O)O4)CC[C@]23C)C1(C)C (stereo partly drawn) [3d, (20S, 24R)-Epoxy-3β-O-(Boc-L-leucyl)-dammarane-6α,12β,25-triol] are within 1.5-fold of each other in IC50: 88.6 ± 5.03 µM for the first, 74.9 ± 2.87 µM for the second.

C[C@H](N)C(=O)O[C@H]1CC[C@@]2(C)C([C@@H](O)C[C@]3(C)C2C[C@@H](O)C2C([C@]4(C)CC[C@H](C(C)(C)O)O4)CC[C@]23C)C1(C)C (stereo partly drawn) [4a, (20S, 24R)-Epoxy-3β-O-(L-alanyl)-dammarane-6α,12β,25-triol] and CC(C)[C@H](N)C(=O)O[C@H]1CC[C@@]2(C)C([C@@H](O)C[C@]3(C)C2C[C@@H](O)C2C([C@]4(C)CC[C@H](C(C)(C)O)O4)CC[C@]23C)C1(C)C (stereo partly drawn) [4f, (20S, 24R)-Epoxy-3β-O-(L-valyl)-dammarane-6α,12β,25-triol] are within 1.5-fold of each other in IC50: 34 ± 0.9 µM for the first, 44.7 ± 3.07 µM for the second.

CSCC[C@H](N)C(=O)O[C@H]1CC[C@@]2(C)C([C@@H](O)C[C@]3(C)C2C[C@@H](O)C2C([C@]4(C)CC[C@H](C(C)(C)O)O4)CC[C@]23C)C1(C)C (stereo partly drawn) [4b, (20S, 24R)-Epoxy-3β-O-(L-methinyl)-dammarane-6α,12β,25-triol] and CC(C)C[C@H](N)C(=O)O[C@H]1CC[C@@]2(C)C([C@@H](O)C[C@]3(C)C2C[C@@H](O)C2C([C@]4(C)CC[C@H](C(C)(C)O)O4)CC[C@]23C)C1(C)C (stereo partly drawn) [4d, (20S, 24R)-Epoxy-3β-O-(L-leucyl)-dammarane-6α,12β,25-triol] are within 1.5-fold of each other in IC50: 50.6 ± 0.62 µM for the first, 35.4 ± 1.59 µM for the second.

First: CC(C)(O)[C@H]1CC[C@@](C)(C2CC[C@]3(C)C2[C@H](O)CC2[C@@]4(C)CC[C@H](OC(=O)C5CCCN5)C(C)(C)C4[C@@H](O)C[C@]23C)O1 (stereo partly drawn) [4e, (20S, 24R)-Epoxy-3β-O-(L-prolyl)-dammarane-6α,12β,25-triol]
Second: CC(C)(O)C1CCC(C)(C2CCC3(C)C2C(O)CC2C4(C)CCC(O)C(C)(C)C4CCC23C)O1 (centres unmarked) [Pyxinol]
The IC50 of the first is 3-fold lower: 24.6 ± 0.35 µM for the first, 74.5 ± 1.09 µM for the second.

System: not given
Assay: not given
Conditions: rats; cited from earlier work

In the case of CC(C)(O)C1CCC(C)(C2CCC3(C)C2C(O)CC2C4(C)CCC(O)C(C)(C)C4CCC23C)O1 (centres unmarked) [Pyxinol], the oral bioavailability is given as “low”.

For CC(C)(O)C1CCC(C)(C2CCC3(C)C2C(O)CC2C4(C)CCC(O)C(C)(C)C4CCC23C)O1 (centres unmarked) [Pyxinol], the t1/2 is listed as “short”.
